Source: the supplement of paper PMC10307832

What was measured:
Assay in all cases: relative viability (nuclei count vs DMSO), 5 days (fraction); higher = more cells survive
[1] = tested on: NCI-H2170
In short: (§1)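 Relative viability equals treated-well nuclei counts divided by vehicle-well nuclei counts. Counts came from 4× images of lung cancer cell lines grown in 1536-well plates for 5 days after pin-tool dosing on the day after seeding. Dosing used one drug alone or a fixed anchor-drug dose plus five library-drug doses (not always all listed) in √10 steps, and values are medians of duplicate plates.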

[2] = tested on: NCI-H647
In short: as §1

[3] = tested on: NCI-H650
In short: as §1

[4] = tested on: NCI-H727
In short: as §1

[5] = tested on: NCI-H2347
In short: as §1

[6] = tested on: NCI-H2126
In short: as §1

[7] = tested on: NCI-H1793
In short: as §1

[8] = tested on: NCI-H520
In short: as §1

[9] = tested on: NCI-H460
In short: as §1

[10] = tested on: HOP-62
In short: as §1

[11] = tested on: HCC-44
In short: as §1

[12] = tested on: NCI-H2023
In short: as §1

[13] = tested on: NCI-H2405
In short: as §1

[14] = tested on: EPLC-272H
In short: as §1

[15] = tested on: SW 1573
In short: as §1

[16] = tested on: NCI-H2009
In short: as §1

[17] = tested on: NCI-H1437
In short: as §1

[18] = tested on: LOU-NH91
In short: as §1

[19] = tested on: EMC-BAC-2
In short: as §1

COCC1(CO)C(=O)C2CCN1CC2 (stereo unspecified) [PRIMA-1MET] + CS(=O)(=O)CCNCc1ccc(-c2ccc3ncnc(Nc4ccc(OCc5cccc(F)c5)c(Cl)c4)c3c2)o1 [Lapatinib] (partner 2 µM)
relative viability ([1]; first compound 0.2 µM): 0.263
relative viability ([1]; first compound 0.6325 µM): 0.236
relative viability ([1]; first compound 2 µM): 0.237
relative viability ([1]; first compound 6.325 µM): 0.276
relative viability ([1]; first compound 20 µM): 0.273
relative viability ([2]; first compound 0.2 µM): 1.29
relative viability ([2]; first compound 0.6325 µM): 1.09
relative viability ([2]; first compound 2 µM): 0.759
relative viability ([2]; first compound 6.325 µM): 1.29
relative viability ([2]; first compound 20 µM): 0.783
relative viability ([3]; first compound 0.2 µM): 1.24
relative viability ([3]; first compound 2 µM): 0.914
relative viability ([3]; first compound 6.325 µM): 0.871
relative viability ([3]; first compound 20 µM): 0.0916
relative viability ([4]; first compound 0.2 µM): 0.559
relative viability ([4]; first compound 0.6325 µM): 0.769
relative viability ([4]; first compound 2 µM): 0.503
relative viability ([4]; first compound 6.325 µM): 0.624
relative viability ([4]; first compound 20 µM): 0.113
relative viability ([5]; first compound 0.2 µM): 0.939
relative viability ([5]; first compound 0.6325 µM): 0.856
relative viability ([5]; first compound 2 µM): 0.57
relative viability ([5]; first compound 6.325 µM): 0.918
relative viability ([5]; first compound 20 µM): 1.06
relative viability ([6]; first compound 0.2 µM): 0.875
relative viability ([6]; first compound 0.6325 µM): 0.757
relative viability ([6]; first compound 2 µM): 0.733
relative viability ([6]; first compound 6.325 µM): 0.815
relative viability ([6]; first compound 20 µM): 0.773
relative viability ([7]; first compound 0.2 µM): 0.707
relative viability ([7]; first compound 0.6325 µM): 0.68
relative viability ([7]; first compound 6.325 µM): 0.592
relative viability ([7]; first compound 20 µM): 0.646
relative viability ([8]; first compound 0.2 µM): 0.792
relative viability ([8]; first compound 0.6325 µM): 0.987
relative viability ([8]; first compound 6.325 µM): 0.828
relative viability ([8]; first compound 20 µM): 0.0834
relative viability ([9]; first compound 0.2 µM): 0.993
relative viability ([9]; first compound 0.6325 µM): 0.826
relative viability ([9]; first compound 2 µM): 0.893
relative viability ([9]; first compound 6.325 µM): 0.607
relative viability ([9]; first compound 20 µM): 0.0047
relative viability ([10]; first compound 0.2 µM): 1.17
relative viability ([10]; first compound 0.6325 µM): 0.911
relative viability ([10]; first compound 2 µM): 0.887
relative viability ([10]; first compound 6.325 µM): 1.06
relative viability ([10]; first compound 20 µM): 0.853
relative viability ([11]; first compound 0.2 µM): 1.02
relative viability ([11]; first compound 0.6325 µM): 0.775
relative viability ([11]; first compound 2 µM): 0.99
relative viability ([11]; first compound 6.325 µM): 1.01
relative viability ([11]; first compound 20 µM): 0.994
relative viability ([12]; first compound 0.2 µM): 0.991
relative viability ([12]; first compound 0.6325 µM): 0.26
relative viability ([12]; first compound 2 µM): 0.639
relative viability ([12]; first compound 6.325 µM): 0.893
relative viability ([12]; first compound 20 µM): 0.841
relative viability ([13]; first compound 0.2 µM): 0.77
relative viability ([13]; first compound 0.6325 µM): 1.17
relative viability ([13]; first compound 6.325 µM): 0.85
relative viability ([13]; first compound 20 µM): 0.0796
relative viability ([14]; first compound 0.2 µM): 0.871
relative viability ([14]; first compound 0.6325 µM): 0.767
relative viability ([14]; first compound 2 µM): 0.905
relative viability ([14]; first compound 6.325 µM): 0.971
relative viability ([14]; first compound 20 µM): 0.333
relative viability ([15]; first compound 0.2 µM): 1.26
relative viability ([15]; first compound 0.6325 µM): 1.04
relative viability ([15]; first compound 2 µM): 0.999
relative viability ([15]; first compound 6.325 µM): 0.691
relative viability ([15]; first compound 20 µM): 0.0423
relative viability ([16]; first compound 0.2 µM): 0.66
relative viability ([16]; first compound 0.6325 µM): 0.844
relative viability ([16]; first compound 2 µM): 0.669
relative viability ([16]; first compound 6.325 µM): 0.905
relative viability ([16]; first compound 20 µM): 0.0051
relative viability ([17]; first compound 0.2 µM): 0.936
relative viability ([17]; first compound 0.6325 µM): 0.703
relative viability ([17]; first compound 2 µM): 0.765
relative viability ([17]; first compound 6.325 µM): 0.82
relative viability ([17]; first compound 20 µM): 0.694
relative viability ([18]; first compound 0.2 µM): 0.806
relative viability ([18]; first compound 0.6325 µM): 0.715
relative viability ([18]; first compound 2 µM): 0.656
relative viability ([18]; first compound 6.325 µM): 0.692
relative viability ([18]; first compound 20 µM): 0.496
relative viability ([19]; first compound 0.2 µM): 0.918
relative viability ([19]; first compound 0.6325 µM): 0.895
relative viability ([19]; first compound 2 µM): 0.766
relative viability ([19]; first compound 6.325 µM): 0.89
relative viability ([19]; first compound 20 µM): 0.897
